The conditions of assay [1]: cited from earlier work.
For assay [2] the following is noted: after hGH administration; cited from earlier work.
Assay [3] deals with dog, hyperglycemia induced by infusing glucose. Kind of assay: Portal infusion of deletion peptide in dog during induced hyperglycemia with fixed insulin levels (Example 5, second study). Format: in vivo. The settings on record: basal insulin alone, glucose >200 mg/deciliter. Here is the method:
In the second study, deletion peptide was infused portally at a rate of 1 μg/kg/min during hyperglycemia induced by infusing glucose through a peripheral catheter (to maintain glucose levels in excess of 200 mg/deciliter). Basal glucagon levels were fixed and insulin levels were fixed either at basal or four-fold basal levels.

Assay [4] relates to rats given an intraperitoneal glucose load. Kind of assay: Plasma glucose in rats given an intraperitoneal glucose load, DP with and without insulin (Example 2). It is filed as in vivo, Sprague-Dawley rats. The procedure:
(§1) A study was conducted to determine the effect on plasma glucose of deletion peptide, with and without insulin, in rats given an intraperitoneal glucose load. Groups of five male Sprague-Dawley rats were involved in this study. All weighed between 160 to 168 grams and were maintained on standard laboratory diet until 18 hours prior to the test procedures. Test groups of fasted rats received, in rapid succession, 1.0 ml of 0.75 M glucose, 10 mU of insulin in admixture with 1% bovine serum albumin (BSA) in normal saline (pH 7.4), and either 0, 25, 50 or 100 μg doses of deletion peptide. Control groups of rats received glucose and 1% BSA in saline with no insulin but with similarly varying levels of deletion peptide. Plasma glucose determinations were made on blood drawn one hour after administration of test substances and the results (means, ± standard errors) of these determinations are set out in Table I below.

Assay [5] has as its system mice ob/ob, ob/+, db/db, db/m. Kind of assay: Plasma glucose after glucose load, fixed insulin and DP doses, normal and genetically abnormal mice (Example 4). The following applies: i.p. glucose, insulin 0.001 mU/10g. Format: in vivo. The procedure: (§2) A study was conducted to ascertain the effects of fixed amounts of deletion peptide and insulin on various animal models, including rats and normal and genetically abnormal mice.
(§3) Animals in test groups of five each were employed in these procedures. Sprague-Dawley rats weighed approximately 200 grams; homozygous genetically abnormal mice (ob/ob and db/db) had weights in the range of 40 to 60 grams; and heterozygous normal mice (ob/+ and db/m) all weighed approximately 25 grams. Glucose was administered intraperitoneally at a dosage of 0.05 ml/10g of a solution containing 135 mg/ml glucose, except for one group of rats which were given an oral dose of glucose comprising 1 ml of 270 mg/ml glucose solution. Insulin was administered at a dose of 0.001 mU/10g and deletion peptide was simultaneously intraperitoneally administered at a dose of 5.0 μg/10g.
(§4) The results of plasma glucose determinations performed on blood drawn one hour after administration of test materials are set out in Table III, below.

Assay [6] concerns Rhesus monkeys. Kind of assay: Induced hyperglycemia in Rhesus monkeys, plasma glucose over two hours (Example 6). Format: in vivo. Here is the method: A study was conducted to determine the effects of deletion peptide on induced hyperglycemia in Rhesus monkeys. Blood samples were taken from normal female monkeys (in three experimental groups of three) five minutes before administration of an oral dose of 3.0 ml/kg of 0.5 g/ml glucose and intramuscular administration of either: (1) 0.5 ml/kg phosphate buffered saline (PBS), pH 7.4; (2) deletion peptide 0.1 ml/kg of 1.0 mg/ml solution in PBS; (3) deletion peptide as above combined with 0.5 ml/kg of 20 mU/ml insulin in PBS; or (4) insulin alone as above. Blood samples were then periodically withdrawn over two hours and analyzed for plasma glucose levels. Plasma glucose level data is set out in Table IV.

Assay [7] relates to rats given an intraperitoneal glucose load. Kind of assay: Plasma glucose in rats given an intraperitoneal glucose load, increasing insulin doses with and without 100 μg DP (Example 3). It is filed as in vivo. The following applies: for Plasma Glucose at 60 minutes: 1.0% BSA in saline, no DP, i.p. glucose load. Here is the method: as §1
A study was conducted under the same general procedures as Example 2 to determine the effect of increasing doses of insulin, with and without 100 μg of deletion peptide, on rats given an intraperitoneal glucose load. The results of plasma glucose determinations on blood drawn after 60 minutes are set out below in Table II.

Assay [8] concerns Sprague-Dawley rats. Kind of assay: Plasma glucose after glucose load, fixed insulin and DP doses, rats (Example 4). It is filed as in vivo. The following applies: Rat (normal), insulin 0.001 mU/10g. Here is the method:
as §2, §3, §4

Assay [9] concerns rabbits. The following applies: cited from earlier work.
Assay [10] deals with fat cells. The settings on record: compared with the 32-46 peptide findings; cited from earlier work.
The subject of assay [11] is normal rats. The settings on record: cited from earlier work.

As for “hGH positions 1 through 15: fragment duplicating the sequence of amino acid residues at hGH positions 1 through 15 (FPTIPLSRLFDNAML; UniProt P01241 27-41, looked up, fragment)”, in [1] (hGH amino terminal fragment), the “effect on glucose uptake” value is on record as “insulin potentiating effect on glucose uptake”.

For human growth hormone [hGH], in assay [2], the “blood levels of glucose” value is “initially raise and then lower blood levels of glucose”; the free fatty acids result is “lower free fatty acids within one hour of administration, followed by later increasing circulating fatty acids”.

With insulin, the hepatic glucose output entry in assay [3] is “only reduced hepatic glucose output”. Besides, the “Plasma Glucose at 60 minutes” value worked out at 8.1 ± 0.2 mmol/L in [4] (10 mU insulin in 1.0% BSA in saline, 0 μg DP, fasted rats, i.p. glucose load); 8.0 ± 0.3 mmol/L in assay [7] (insulin 7 mU per rat); 8.1 ± 0.2 mmol/L in [7] (insulin 10 mU per rat); 7.0 ± 0.1 mmol/L in [7] (insulin 20 mU per rat); 5.2 ± 0.3 mmol/L in assay [7] (insulin 40 mU per rat). In addition, the effect on glycemia result in [4] (low dose of insulin in BSA alone (10 mU, 0 DP)) was “without effect on glycemia”. In addition, the Plasma Glucose at 60 min in [5] (Mouse db/db) was determined as 198 ± 31 mg/dL; in [5] (Mouse db/m (normal)), 102 ± 10 mg/dL; in assay [5] (Mouse ob/+ (normal)) it was 99.5 ± 6 mg/dL; in assay [5] (Mouse ob/ob), 167 ± 26 mg/dL; in assay [8] (glucose administered orally), 144 ± 12 mg/dL; in assay [8] (i.p. glucose), 121 ± 28 mg/dL. The Plasma Glucose in assay [6] (+5 min., oral glucose + i.m. insulin 0.5 ml/kg of 20 mU/ml) is 79 ± 9 mg/dL; in assay [6] (+15 min., oral glucose + i.m. insulin), 72 ± 10 mg/dL; in [6] (+30 min., oral glucose + i.m. insulin), 85 ± 11 mg/dL; in assay [6] (+45 min., oral glucose + i.m. insulin), 88 ± 13 mg/dL; in assay [6] (+60 min., oral glucose + i.m. insulin) it was 109 ± 14 mg/dL; in [6] (+120 min., oral glucose + i.m. insulin), 108 ± 14 mg/dL. Also, in assay [6] (-5 min. (before administration), oral glucose + i.m. insulin group), the Plasma Glucose worked out at 71 ± 3 mg/dL. The “effect on plasma glucose” value in [7] (higher doses of insulin (20, 40 mU)) is “corresponding decreases in plasma glucose”. In addition, the “change in glycemia compared with the control group” value in [7] (insulin 7.0 mU/rat, whether or not deletion peptide was concurrently administered) was “no change in glycemia”. For the same substance, the “effect on plasma glucose concentration” value in [7] (insulin alone, 10 mU) is on record as “without effect on plasma glucose concentration”.

On to “peptide duplicating residues 176 through 191: peptide duplicating hGH residues 176 through 191 (FLRIVQCRSVEGSCGF; UniProt P01241 202-217, looked up, fragment)”, for which, in [1] (hGH carboxy terminal fragment), the glycemic effect entry is on record as “hyperglycemic effect”.

As to “tetradecapeptide: synthetic tetradecapeptide copying hGH residues at positions 31 through 44 (FEEAYIPKEQKYSF; UniProt P01241 57-70, looked up, fragment)”, the “in vivo hypoglycemic effect” value in assay [9] and in assay [11] was “absence of any in vivo hypoglycemic effect” each time. Also, in assay [10], the “in vitro effects on fat cells” value is reported as “substantially the same in vitro effects on fat cells”.

The record behind these values is patent publication US4558033A, “Potentiation of the effects of insulin by peptides” (Amgen, priority 1983, dated 1985).
